Consider 33 molecules from patent US20240398784A1, “C-LINKED ISOQUINOLINE AMIDES AS LRRK2 INHIBITORS, PHARMACEUTICAL COMPOSITIONS, AND USES THEREOF” (Merck Sharp & Dohme LLC, priority 2021, published 2024).

In the assay the target is LRRK2 G2019S (Homo sapiens, UniProt Q5S007, G2019S). Kind of assay: LRRK2 G2019S Km ATP LanthaScreen assay. As to conditions: read-out: LRRK2 pIC50 (converted). The format is biochemical.
Sequence of LRRK2 G2019S (Q5S007 whole entry G2019S): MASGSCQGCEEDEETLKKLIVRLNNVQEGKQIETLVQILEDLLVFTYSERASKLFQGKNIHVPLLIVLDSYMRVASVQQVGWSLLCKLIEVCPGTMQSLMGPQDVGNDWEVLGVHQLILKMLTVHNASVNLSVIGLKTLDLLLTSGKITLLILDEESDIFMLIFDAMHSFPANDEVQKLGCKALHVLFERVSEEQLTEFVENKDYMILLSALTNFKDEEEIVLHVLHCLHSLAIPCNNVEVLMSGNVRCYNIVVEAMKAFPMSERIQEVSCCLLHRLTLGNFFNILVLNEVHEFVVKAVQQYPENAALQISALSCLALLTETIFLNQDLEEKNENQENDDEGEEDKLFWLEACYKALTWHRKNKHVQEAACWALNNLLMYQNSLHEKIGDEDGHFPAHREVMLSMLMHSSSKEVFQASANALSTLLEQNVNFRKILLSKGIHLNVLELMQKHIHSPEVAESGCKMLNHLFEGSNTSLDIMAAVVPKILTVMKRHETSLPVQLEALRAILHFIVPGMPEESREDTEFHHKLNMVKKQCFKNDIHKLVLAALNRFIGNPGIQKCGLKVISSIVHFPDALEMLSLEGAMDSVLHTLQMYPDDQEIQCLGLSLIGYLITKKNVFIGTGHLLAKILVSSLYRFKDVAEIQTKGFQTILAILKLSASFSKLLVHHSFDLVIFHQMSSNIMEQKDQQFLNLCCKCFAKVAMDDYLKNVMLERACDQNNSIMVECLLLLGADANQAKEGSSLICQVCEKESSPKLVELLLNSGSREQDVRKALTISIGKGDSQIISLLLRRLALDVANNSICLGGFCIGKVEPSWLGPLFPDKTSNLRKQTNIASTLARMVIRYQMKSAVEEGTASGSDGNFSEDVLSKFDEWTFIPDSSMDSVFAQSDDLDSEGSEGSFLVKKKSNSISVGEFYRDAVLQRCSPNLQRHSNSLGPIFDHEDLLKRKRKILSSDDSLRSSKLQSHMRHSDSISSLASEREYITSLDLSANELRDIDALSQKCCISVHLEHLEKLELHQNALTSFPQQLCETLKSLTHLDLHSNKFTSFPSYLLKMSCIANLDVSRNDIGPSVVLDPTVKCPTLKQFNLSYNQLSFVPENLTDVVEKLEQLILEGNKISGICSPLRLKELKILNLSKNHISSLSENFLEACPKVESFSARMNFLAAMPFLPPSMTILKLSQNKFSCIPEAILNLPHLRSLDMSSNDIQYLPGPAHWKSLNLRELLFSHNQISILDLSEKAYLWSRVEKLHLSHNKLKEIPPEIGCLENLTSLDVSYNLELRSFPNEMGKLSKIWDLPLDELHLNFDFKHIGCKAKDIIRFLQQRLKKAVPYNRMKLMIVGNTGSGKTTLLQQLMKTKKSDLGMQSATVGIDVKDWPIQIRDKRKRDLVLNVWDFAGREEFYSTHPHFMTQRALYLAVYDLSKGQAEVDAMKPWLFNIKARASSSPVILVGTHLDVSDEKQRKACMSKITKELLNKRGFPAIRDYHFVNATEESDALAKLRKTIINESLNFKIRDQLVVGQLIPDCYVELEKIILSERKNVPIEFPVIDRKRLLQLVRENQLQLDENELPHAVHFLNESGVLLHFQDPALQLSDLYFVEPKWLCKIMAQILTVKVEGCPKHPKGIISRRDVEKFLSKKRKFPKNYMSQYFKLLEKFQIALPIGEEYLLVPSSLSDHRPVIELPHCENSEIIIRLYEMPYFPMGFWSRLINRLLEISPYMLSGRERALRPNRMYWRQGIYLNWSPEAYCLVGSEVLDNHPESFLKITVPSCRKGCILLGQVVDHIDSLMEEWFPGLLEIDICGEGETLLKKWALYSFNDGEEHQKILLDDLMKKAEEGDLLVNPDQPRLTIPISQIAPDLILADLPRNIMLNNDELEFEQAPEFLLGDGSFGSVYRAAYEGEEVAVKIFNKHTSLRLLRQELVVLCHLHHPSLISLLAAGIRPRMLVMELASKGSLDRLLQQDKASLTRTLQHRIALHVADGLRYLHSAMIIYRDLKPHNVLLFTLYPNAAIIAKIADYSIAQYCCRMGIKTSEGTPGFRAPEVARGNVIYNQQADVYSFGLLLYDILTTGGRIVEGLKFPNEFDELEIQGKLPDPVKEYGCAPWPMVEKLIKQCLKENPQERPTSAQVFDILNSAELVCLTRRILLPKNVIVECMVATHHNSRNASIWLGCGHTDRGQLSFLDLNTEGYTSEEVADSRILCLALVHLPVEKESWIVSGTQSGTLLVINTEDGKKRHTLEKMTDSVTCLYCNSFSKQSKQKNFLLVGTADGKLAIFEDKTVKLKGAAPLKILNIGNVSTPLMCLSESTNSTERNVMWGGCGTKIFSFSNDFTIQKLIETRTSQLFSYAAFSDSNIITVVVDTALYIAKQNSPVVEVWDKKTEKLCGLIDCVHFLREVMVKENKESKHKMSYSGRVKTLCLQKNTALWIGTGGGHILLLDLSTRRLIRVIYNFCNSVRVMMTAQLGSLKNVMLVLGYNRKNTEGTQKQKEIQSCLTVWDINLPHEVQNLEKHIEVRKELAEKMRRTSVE

On to `CC(CC#N)c1cc2cc(NC(=O)C3CC3c3ccccn3)ncc2cc1Cl` (single isomer, unassigned) [Ex-9.22, N-(7-chloro-6-(1-cyanopropan-2-yl)isoquinolin-3-yl)-2-(pyridin-2-yl)cyclopropane-1-carboxamide], for which the IC50 was 129 nM. On to `CC1(C)CCC(C(=O)Nc2cc3cc(C4CCC(N5CCC(F)C5)CC4)c(Cl)cc3cn2)CO1` (single isomer, unassigned) [Ex-5.23, N-(7-chloro-6-(4-(3-fluoropyrrolidin-1-yl)cyclohexyl)isoquinolin-3-yl)-6,6-dimethyltetrahydro-2H-pyran-3-carboxamide], for which the IC50 was 3020 nM.

In the case of `N#CC1(c2cc3cc(NC(=O)C4CC4c4ccccn4)ncc3cc2F)CC12CC2` (single isomer, unassigned) [Ex-18.14, (1R,2R or 1S,2S)-N-(6-((R or S)-1-cyanospiro[2.2]pentan-1-yl)-7-fluoroisoquinolin-3-yl)-2-(pyridin-2-yl)cyclopropane-1-carboxamide], the IC50 is 60.3 nM. For the molecule `CC1(N2CCC(c3cc4cc(NC(=O)C5C6COCC65)ncc4cc3Cl)CC2)CCOC1` (single isomer, unassigned) [Ex-6.12, N-(7-chloro-6-(1-(3-methyltetrahydrofuran-3-yl)piperidin-4-yl)isoquinolin-3-yl)-3-oxabicyclo[3.1.0]hexane-6-carboxamide], the IC50 was 8.13 nM. For the molecule `CC1(N2CCC(c3cc4cc(NC(=O)C5CC5c5cccnc5)ncc4cc3Cl)CC2)COCC1O` (single isomer, unassigned) [Ex-4.42, N-(7-chloro-6-(1-(4-hydroxy-3-methyltetrahydrofuran-3-yl)piperidin-4-yl)isoquinolin-3-yl)-2-(pyridin-3-yl)cyclopropane-1-carboxamide], the IC50 was 200 nM.

With `CC(C)(O)C1CC1C(=O)Nc1cc2cc(C3CCN(C4(C)COCC4O)CC3)c(Cl)cc2cn1` (stereo not drawn) [Ex-2.20], the IC50 was 11.5 nM. Consider `N#CC1(c2ccc3cnc(NC(=O)C4CC(OC(F)F)C4)cc3c2)CC12CC2` (single isomer, unassigned) [Ex-2.6], for which the IC50 was 9.12 nM. Next, `CC1(N2CCC(c3cc4cc(NC(=O)C5CC5c5ccncc5)ncc4cc3Cl)CC2)COCC1O` (single isomer, unassigned) [Ex-4.22, N-(7-chloro-6-(1-(4-hydroxy-3-methyltetrahydrofuran-3-yl)piperidin-4-yl)isoquinolin-3-yl)-2-(pyridin-4-yl)cyclopropane-1-carboxamide]: 1.74 nM; `CC1(N2CCC(c3cc4cc(NC(=O)Cc5cnn(C(F)F)c5)ncc4cc3Cl)CC2)COCC1O` (stereo not drawn) [Ex-3.11]: 0.631 nM; `CC1(C)CC(C(=O)Nc2cc3cc(C4CCN(C5(C)COCC5F)CC4)c(Cl)cc3cn2)CCO1` (single isomer, unassigned) [Ex-6.36, N-(7-chloro-6-(1-(4-fluoro-3-methyltetrahydrofuran-3-yl)piperidin-4-yl)isoquinolin-3-yl)-2,2-dimethyltetrahydro-2H-pyran-4-carboxamide]: 0.0813 nM. Turning to `COCC(C)c1cc2cc(NC(=O)C3CC34CCOCC4)ncc2cc1Cl` (single isomer, unassigned) [Ex-9.12, N-(7-chloro-6-(1-methoxypropan-2-yl)isoquinolin-3-yl)-6-oxaspiro[2.5]octane-1-carboxamide], the IC50 was 35.5 nM.

In the case of `CC(C)n1nccc1C1CC1C(=O)Nc1cc2cc(C3CCN(C4(C)COCC4O)CC3)c(Cl)cc2cn1` (single isomer, unassigned) [Ex-4.63, N-(7-chloro-6-(1-(4-hydroxy-3-methyltetrahydrofuran-3-yl)piperidin-4-yl)isoquinolin-3-yl)-2-(1-isopropyl-1H-pyrazol-5-yl)cyclopropane-1-carboxamide], the IC50 was 22.4 nM. Turning to `Cn1cc(C2CC2C(=O)Nc2cc3cc(C4CCN(C5(C)COCC5F)CC4)c(Cl)cc3cn2)cn1` (single isomer, unassigned) [Ex-6.31, N-(7-chloro-6-(1-(4-fluoro-3-methyltetrahydrofuran-3-yl)piperidin-4-yl)isoquinolin-3-yl)-2-(1-methyl-1H-pyrazol-4-yl)cyclopropane-1-carboxamide], the IC50 was 0.178 nM. For `CC(C(=O)Nc1cc2cc(C3(C#N)CC34CC4)ccc2cn1)c1cnn(C)c1` (stereo not drawn) [Ex-2.109], the IC50 is 1.91 nM.

As for `N#CC1(c2ccc3cnc(NC(=O)C4CC4)cc3c2)CC12CC2` (single isomer, unassigned) [Ex-18.2, N-(6-(1-cyanospiro[2.2]pentan-1-yl)isoquinolin-3-yl)cyclopropanecarboxamide], the IC50 is 3.63 nM. For the molecule `Cn1cc(C2CC2C(=O)Nc2cc3cc(C4CCC(N5CC(F)C5)CC4)c(Cl)cc3cn2)cn1` (single isomer, unassigned) [Ex-5.8, N-(7-cchloro-6-(4-(3-fluoroazetidin-1-yl)cyclohexyl)isoquinolin-3-yl)-2-(1-methyl-1H-pyrazol-4-yl)cyclopropane-1-carboxamide], the IC50 was 8.71 nM. Turning to `Cc1cc2cnc(NC(=O)C3CC34CCOC4)cc2cc1C1CCN(C2(C)COCC2F)CC1` (single isomer, unassigned) [Ex-15.11, N-(6-(1-(4-fluoro-3-methyltetrahydrofuran-3-yl)piperidin-4-yl)-7-methylisoquinolin-3-yl)-5-oxaspiro[2.4]heptane-1-carboxamide], the IC50 was 70.8 nM. Next, `CC1(N2CCC(c3cc4cc(NC(=O)C5COC6(CCC6)C5)ncc4cc3Cl)CC2)COCC1O` (single isomer, unassigned) [Ex-4.17, N-(7-chloro-6-(1-(4-hydroxy-3-methyltetrahydrofuran-3-yl)piperidin-4-yl)isoquinolin-3-yl)-5-oxaspiro[3.4]octane-7-carboxamide]: 0.102 nM; `Cc1cc2cnc(NC(=O)C3CC3c3ccccn3)cc2cc1C1CCN(C2(C)CCOC2)CC1` (single isomer, unassigned) [Ex-16.10, N-(7-methyl-6-(1-(3-methyltetrahydrofuran-3-yl)piperidin-4-yl)isoquinolin-3-yl)-2-(pyridin-2-yl)cyclopropane-1-carboxamide]: 0.0813 nM; `Cc1cc2cnc(NC(=O)C3CC3C(F)F)cc2cc1C1CCN(C2(C)COCC2O)CC1` (stereo not drawn) [Ex-2.56]: 1.58 nM. For the molecule `CC1(C)CC(C(=O)Nc2cc3cc(C4CCN(C5(C)COCC5O)CC4)c(Cl)cc3cn2)CCO1` (stereo not drawn) [Ex-2.34], the IC50 was 1.7 nM. The value for `CC1(C)CC(C(=O)Nc2cc3cc(C4(C#N)CC45CC5)ccc3cn2)CC(C)(C)O1` (single isomer, unassigned) [Ex-1.27, N-(6-((R or S)-1-cyanospiro[2.2]pentan-1-yl)isoquinolin-3-yl)-2,2,6,6-tetramethyltetrahydro-2H-pyran-4-carboxamide] was 9.77 nM; that for `Cc1cc2cnc(NC(=O)C3CC3c3ccccn3)cc2cc1C1CCN(C2(C)CCOC2)CC1` (single isomer, unassigned) [Ex-16.12, N-(7-methyl-6-(1-(3-methyltetrahydrofuran-3-yl)piperidin-4-yl)isoquinolin-3-yl)-2-(pyridin-2-yl)cyclopropane-1-carboxamide] was 0.0813 nM. Regarding `CC1(C)CC1C(=O)Nc1cc2cc(C3CCN(C4(C)COCC4O)CC3)c(Cl)cc2cn1` (stereo not drawn) [Ex-2.12], the IC50 is 0.355 nM. As for `O=C(Nc1cc2cc(C3CCC(N4CC(F)(F)C4)CC3)c(Cl)cc2cn1)C1CC1c1ccccn1` (single isomer, unassigned) [Ex-5.4, N-(7-chloro-6-(4-(3,3-difluoroazetidin-1-yl)cyclohexyl)isoquinolin-3-yl)-2-(pyridin-2-yl)cyclopropane-1-carboxamide], the IC50 was 47.9 nM. As for `O=C(Nc1cc2cc(C3CCN(C4COC4)CC3F)c(Cl)cc2cn1)C1CC1` (single isomer, unassigned) [Ex-14.2, N-(7-chloro-6-((3R,4R,3S,4R,3R,4S or 3S,4S)-3-fluoro-1-(oxetan-3-yl)piperidin-4-yl)isoquinolin-3-yl)cyclopropanecarboxamide], the IC50 was 4.07 nM. For `Cc1cc2cnc(NC(=O)C3CC34CCOC4)cc2cc1C1CCN(C2(C)COCC2F)CC1` (single isomer, unassigned) [Ex-15.7, N-(6-(1-(4-fluoro-3-methyltetrahydrofuran-3-yl)piperidin-4-yl)-7-methylisoquinolin-3-yl)-5-oxaspiro[2.4]heptane-1-carboxamide], the IC50 was 1.23 nM. `O=C(Nc1cc2cc(C3CCOCC3)c(Cl)cc2cn1)C1CC12CCOCC2` (stereo not drawn) [Ex-7.10, N-(7-chloro-6-(tetrahydro-2H-pyran-4-yl)isoquinolin-3-yl)-6-oxaspiro[2.5]octane-1-carboxamide]: the IC50 is 2.75 nM. As for `CC1(N2CCC(c3cc4cc(NC(=O)C5CC56CC6)ncc4cc3Cl)CC2)COCC1O` (single isomer, unassigned) [Ex-4.6, N-(7-chloro-6-(1-(4-hydroxy-3-methyltetrahydrofuran-3-yl)piperidin-4-yl)isoquinolin-3-yl)spiro[2.2]pentane-1-carboxamide], the IC50 is 0.148 nM. The value for `CC1(N2CCC(c3cc4cc(NC(=O)C5C6COCC65)ncc4cc3Cl)CC2)CCOC1` (single isomer, unassigned) [Ex-6.11, N-(7-chloro-6-(1-(3-methyltetrahydrofuran-3-yl)piperidin-4-yl)isoquinolin-3-yl)-3-oxabicyclo[3.1.0]hexane-6-carboxamide] was 1.95 nM; that for `CCC1C(C(=O)Nc2cc3cc(C4CCN(C5(C)COCC5O)CC4)c(Cl)cc3cn2)C1c1ccccn1` (single isomer, unassigned) [Ex-4.56, N-(7-chloro-6-(1-(4-hydroxy-3-methyltetrahydrofuran-3-yl)piperidin-4-yl)isoquinolin-3-yl)-2-ethyl-3-(pyridin-2-yl)cyclopropane-1-carboxamide] was 18.2 nM.

Turning to `COCC(C)c1cc2cc(NC(=O)C3CC34CCOCC4)ncc2cc1Cl` (single isomer, unassigned) [Ex-9.11, N-(7-chloro-6-(1-methoxypropan-2-yl)isoquinolin-3-yl)-6-oxaspiro[2.5]octane-1-carboxamide], the IC50 was 44.7 nM. The value for `CC(C(=O)Nc1cc2cc(C3(C#N)CC34CC4)ccc2cn1)c1cnn(C)c1` (stereo not drawn) [Ex-2.110] was 0.575 nM.
